Assay results reported in patent US7265152B2 (ViroPharma Incorporated, priority 2002, dated 2007).
Like-named read-outs stand apart in the source and are kept apart here.

How the values were obtained:
[1] = system: HCV replicon (BB7 sequence) in Huh-7-Clone A cells; assay: HCV replicon assay: ELISA of NS5A protein in replicon-containing cells (Inhibition of Viral RNA Replication); assay type: cell-based; details: Hepatitis C virus, read-out: Replicon
How it was run: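 Huh-7-Clone A cells carrying subgenomic BB7 HCV replicon (G418-selectable) incubated 72 h with compound. NS5A protein quantified by cell ELISA: glutaraldehyde fixation, anti-NS5A monoclonal plus HRP secondary, TMB read at OD 650 nm. EC50 derived from 8-point serial dilution dose curve.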

[2] = target: T1, HCV NS5B (Hepatitis C virus genotype 1b, UniProt Q9WMX2); assay: Inhibition of viral RNA-dependent RNA polymerase (RdRp), in vitro biochemical assay; set-up: species or system HCV genotype 1b virus (BB7); details: read-out: HCV pol-BB7 IC50
T1 construct: fusion protein, of which the carboxyl terminal 21 amino acids were removed to enhance its solubility; His tag (GSHHHHHH); made in house; host or cells: E. coli
How it was run: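 Purified recombinant NS5B from a genotype 1b consensus (BB7), His-tagged, E. coli-expressed, with the C-terminal 21 residues deleted. Inhibition of RdRp activity in vitro was measured, and IC50 is the concentration giving 50% inhibition.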

[3] = HCV replicon assay, ranges of EC50
[4] = HCV NS5B RdRp, BB7, class symbols A-D
[5] = HCV NS5B RdRp, BB7, activity class
[6] = HCV replicon assay, ranges of 50% effective concentration (EC50)
[7] = HCV NS5B polymerase, BB7 (genotype 1b), values given as range classes A-D
[8] = HCV NS5B RdRp, BB7, reported as range class

SMILES: CCC(C)(O)COc1cc2c(C(=O)NC)c(-c3ccc(F)cc3)oc2cc1N1CCOCC1 (stereo not drawn) [Example 251, 2-(4-Fluoro-phenyl)-5-(2-hydroxy-2-methyl-butoxy)-6-morpholin-4-yl-benzofuran-3-carboxylic acid methylamide]
- EC50 [1, 3]: < 10000 nM
- IC50 [2, 4]: 500 to 5000 nM

SMILES: CNC(=O)c1c(-c2ccc(F)cc2)oc2cc(N(C)S(C)(=O)=O)c(OCc3ccc(S(C)(=O)=O)cc3)cc12 [Example 353, 2-(4-Fluoro-phenyl)-5-(4-methanesulfonyl-benzyloxy)-6-(methanesulfonyl-methyl-amino)-benzofuran-3-carboxylic acid methylamide]
- EC50 [1, 3]: < 1000 nM
- IC50 [2, 5]: ≤ 500 nM

SMILES: CNC(=O)c1c(-c2cccnc2)oc2ccc(Cl)cc12 [Example 89, 5-Chloro-2-pyridin-3-yl-benzofuran-3-carboxylic acid methylamide]
- EC50 ([1]; Huh-7-Clone A, NS5A ELISA, 72-hour incubation, ranges of EC50): > 30000 nM
- IC50 ([2]; purified His-tagged NS5B (BB7), carboxyl terminal 21 amino acids removed): 500 to 5000 nM

SMILES: CNC(=O)c1c(-c2ccc(F)cc2)oc2cc(N(C)S(C)(=O)=O)c(OCc3ccc(C(=O)OC)cc3)cc12 [Example 305, 4-[2-(4-Fluoro-phenyl)-6-(methanesulfonyl-methyl-amino)-3-methylcarbamoyl-benzofuran-5-yloxymethyl]-benzoic acid methyl ester]
- EC50 [1, 3]: < 1000 nM
- IC50 [2, 4]: ≤ 500 nM

SMILES: CCNC(=O)c1c(-c2ccc(F)cc2)oc2cc(-c3c(C)noc3C)c(OC)cc12 [Example 378, 6-(3,5-Dimethyl-isoxazol-4-yl)-2-(4-fluoro-phenyl)-5-methoxy-benzofuran-3-carboxylic acid ethylamide]
- EC50 [1, 3]: < 1000 nM
- IC50 [2, 5]: ≤ 500 nM

SMILES: CNC(=O)c1c(-c2ccc(F)cc2)oc2cc(N(Cc3cccc(CBr)n3)S(C)(=O)=O)c(OCc3cccc(CBr)n3)cc12 [Example 391, 5-(6-Bromomethyl-pyridin-2-ylmethoxy)-6-[(6-bromomethyl-pyridin-2-ylmethyl)-methanesulfonyl-amino] 2-(4-fluoro-phenyl)-benzofuran-3-carboxylic acid methylamide]
- EC50 [1, 6]: < 10000 nM
- IC50 [2, 7]: ≤ 500 nM

SMILES: CNC(=O)c1c(-c2ccc(F)cc2)oc2cc(N3CCOCC3)c(OCc3nn(C)cc3Cl)cc12 [Example 228, 5-(4-Chloro-1-methyl-1H-pyrazol-3-ylmethoxy)-2-(4-fluoro-phenyl)-6-morpholin-4-yl-benzofuran-3-carboxylic acid methylamide]
- EC50 ([1]; HCV replicon, range of EC50): < 1000 nM
- IC50 [2, 8]: ≤ 500 nM

SMILES: CCNc1cc2oc(-c3ccc(F)cc3)c(C(=O)NC)c2c(Cl)c1OC [Example 363, 4-Chloro-6-ethylamino-2-(4-fluoro-phenyl)-5-methoxy-benzofuran-3-carboxylic acid mehtylamide]
- EC50 [1, 3]: < 1000 nM
- IC50 [2, 5]: ≤ 500 nM

SMILES: CNC(=O)c1c(-c2ccc(F)cc2)oc2cc(N3CCOCC3)c(OCC(C)=O)cc12 [Example 215, 2-(4-Fluoro-phenyl)-6-morpholin-4-yl-5-(2-oxo-propoxy)-benzofuran-3-carboxylic acid methylamide]
- EC50 ([1]; HCV replicon, range of EC50): < 10000 nM
- IC50 [2, 8]: 500 to 5000 nM

SMILES: CNC(=O)c1c(-c2ccc(F)cc2)oc2cc(C(C)(C)N)c(OC)cc12 [Example 384, 6-(1-Amino-1-methyl-ethyl)-2-(4-fluoro-phenyl)-5-methoxy-benzofuran-3-carboxylic acid methylamide]
- EC50 [1, 6]: < 30000 nM
- IC50 [2, 7]: 500 to 5000 nM

SMILES: CNC(=O)c1c(-c2ccc(F)cc2)oc2cc(-c3c(C)n[nH]c3C)c(OC(C)C)cc12 [Example 246, 6-(3,5-Dimethyl-1H-pyrazol-4-yl)-2-(4-fluoro-phenyl)-5-isopropoxy-benzofuran-3-carboxylic acid methylamide]
- EC50 ([1]; HCV replicon, range of EC50): < 1000 nM
- IC50 [2, 8]: ≤ 500 nM

SMILES: CNC(=O)c1c(-c2ccc(F)cc2)oc2cc(N(C)S(C)(=O)=O)c(OCc3cccc(OC)c3)cc12 [Example 325, 2-(4-Fluoro-phenyl)-6-(methanesulfonyl-methyl-amino)-5-(3-methoxy-benzyloxy)-benzofuran-3-carboxylic acid methylamide]
- EC50 [1, 3]: < 1000 nM
- IC50 [2, 4]: ≤ 500 nM
